Test results published in ChEMBL document CHEMBL1201862, “PubChem BioAssay data set” (2004).
Activity calls are given as the source filed them.

Legend:
BJ [1] = assay: cytotoxicity toward BJ-TERT-LT-ST fibroblasts, dose response, cell-based, RAS-independent, luminescence (AID 1935); assay type: functional; settings: Homo sapiens;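 further: BJ fibroblasts immortalized with TERT plus LT and ST oncogenes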
Estrogen receptor = Estrogen receptor (Homo sapiens, UniProt P03372);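 further: potency for inhibiting coactivator peptide recruitment to the receptor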
[2] = molecular target: Polyadenylate-binding protein 1 (Homo sapiens, UniProt P11940); assay: PABP poly(A) RNA binding inhibitors, primary screen, biochemical, fluorescence polarization, uHTS (AID 2014)
Estrogen receptor beta = Estrogen receptor beta (Homo sapiens, UniProt Q92731);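 further: recombinant ER-beta bound to coactivator SRC1 peptide in presence of estradiol agonist; inhibitors block coactivator peptide binding and lower the FRET signal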
Chain of Estrogen receptor beta (Q92731 whole entry): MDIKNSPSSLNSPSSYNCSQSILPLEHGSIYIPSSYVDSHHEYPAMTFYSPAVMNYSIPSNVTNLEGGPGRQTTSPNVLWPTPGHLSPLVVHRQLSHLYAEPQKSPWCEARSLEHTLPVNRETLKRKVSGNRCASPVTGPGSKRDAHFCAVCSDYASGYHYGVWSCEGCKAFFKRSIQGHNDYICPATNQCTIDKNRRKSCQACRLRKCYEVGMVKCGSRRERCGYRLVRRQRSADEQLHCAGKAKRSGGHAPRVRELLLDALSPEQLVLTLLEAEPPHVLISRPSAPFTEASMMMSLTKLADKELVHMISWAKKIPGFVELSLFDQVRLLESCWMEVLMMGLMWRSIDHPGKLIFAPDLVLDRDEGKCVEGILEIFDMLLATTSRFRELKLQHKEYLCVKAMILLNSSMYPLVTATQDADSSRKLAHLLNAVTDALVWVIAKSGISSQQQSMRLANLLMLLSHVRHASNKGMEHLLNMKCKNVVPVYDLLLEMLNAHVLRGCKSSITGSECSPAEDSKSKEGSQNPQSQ

BJ [3] = assay: cells; assay type: functional, cell-based; settings: Homo sapiens
[4] = cytotoxicity in HEK-293T cells, dose response, cytotoxicity control for TCR NF-kB inhibitor project, luminescence, T-cell screen hits (AID 489026); assay type: functional, cell-based;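 further: cells exposed to compound about 14 hours before the viability readout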
BJ [5] = assay: cytotoxicity toward BJ-TERT fibroblasts, dose response, cell-based, RAS-independent, luminescence (AID 1933); assay type: functional; settings: Homo sapiens
[6] = cytotoxicity toward DRD oncogenic fibroblasts, dose response, cell-based, non-viral oncogenic, luminescence (AID 1934); assay type: functional; settings: Homo sapiens
[7] = molecular target: Eukaryotic translation initiation factor 4H (Homo sapiens, UniProt Q15056); assay: human eIF4H binding inhibitors, primary screen, translation initiation inhibitor project, biochemical, uHTS, fluorescence polarization (AID 2012)
Mu-type opioid receptor [8] = molecular target: T1, Mu-type opioid receptor (Homo sapiens, UniProt P35372); assay: HTS Image-Based Screen for Agonists of the MOR Receptor. [Related pubchem assays (depositor defined):AID1777, AID1785, AID1786, AID2133]; assay type: functional
T1 sequence (P35372 whole entry): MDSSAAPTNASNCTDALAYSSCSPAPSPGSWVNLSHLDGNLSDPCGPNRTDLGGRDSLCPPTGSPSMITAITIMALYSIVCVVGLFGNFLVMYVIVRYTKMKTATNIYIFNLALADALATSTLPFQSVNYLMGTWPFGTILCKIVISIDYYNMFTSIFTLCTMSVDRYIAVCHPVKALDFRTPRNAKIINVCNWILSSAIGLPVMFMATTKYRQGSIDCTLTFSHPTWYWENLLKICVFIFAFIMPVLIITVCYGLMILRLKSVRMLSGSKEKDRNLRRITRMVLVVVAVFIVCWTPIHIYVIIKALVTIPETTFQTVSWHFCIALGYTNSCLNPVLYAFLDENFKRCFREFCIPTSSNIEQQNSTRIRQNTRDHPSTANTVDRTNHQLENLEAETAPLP

[9] = molecular target: T2, Kappa-type opioid receptor (Homo sapiens, UniProt P41145); assay: SAR analysis of small molecule agonists of the kappa opioid receptor via a luminescent beta-arrestin assay. [Related pubchem assays (depositor defined):AID1777, AID1786, AID1966, AID2133, AID2136, AID2348, AID2352, AID2357, AID2359, AID2370, AID2420, AID2478, AID2491, AID2492, AID2493, AID2497, AID2498, AID2500, AID449737, AID488822, AID488842]; assay type: functional
T2 sequence (P41145 whole entry): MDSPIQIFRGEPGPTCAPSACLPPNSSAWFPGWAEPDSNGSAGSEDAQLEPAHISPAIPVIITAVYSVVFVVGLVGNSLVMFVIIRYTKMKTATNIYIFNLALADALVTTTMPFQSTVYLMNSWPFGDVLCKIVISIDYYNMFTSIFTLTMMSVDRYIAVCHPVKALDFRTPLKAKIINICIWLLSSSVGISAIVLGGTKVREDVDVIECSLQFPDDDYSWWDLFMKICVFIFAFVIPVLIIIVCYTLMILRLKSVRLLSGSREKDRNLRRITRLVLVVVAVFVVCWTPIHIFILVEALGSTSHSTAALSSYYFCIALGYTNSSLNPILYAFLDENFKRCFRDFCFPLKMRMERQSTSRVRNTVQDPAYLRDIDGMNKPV

[10] = molecular target: T2, Kappa-type opioid receptor; assay type: functional
[11] = molecular target: T3, Delta-type opioid receptor (Homo sapiens, UniProt P41143); assay: DOR antagonists, SAR follow-up, image-based (AID 2357); assay type: functional
T3 sequence (P41143 whole entry): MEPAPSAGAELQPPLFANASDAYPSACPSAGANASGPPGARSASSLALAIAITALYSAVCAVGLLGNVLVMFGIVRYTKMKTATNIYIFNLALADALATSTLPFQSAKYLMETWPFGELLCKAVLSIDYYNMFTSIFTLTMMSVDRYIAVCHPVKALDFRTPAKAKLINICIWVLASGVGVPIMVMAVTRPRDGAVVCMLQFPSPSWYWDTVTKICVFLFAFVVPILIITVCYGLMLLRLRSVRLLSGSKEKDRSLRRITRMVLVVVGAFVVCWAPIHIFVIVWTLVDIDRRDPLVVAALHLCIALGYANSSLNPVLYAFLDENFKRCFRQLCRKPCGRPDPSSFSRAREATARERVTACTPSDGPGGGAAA

[12] = molecular target: T2, Kappa-type opioid receptor; assay type: functional; remark: listed apart in the source
[13] = molecular target: T2, Kappa-type opioid receptor; assay: KOR agonist analogs, imaging readout, SAR follow-up, image-based (AID 2359); assay type: functional
[14] = molecular target: T3, Delta-type opioid receptor; assay: HTS Image-Based Screen for Antagonists of the DOR Receptor. [Related pubchem assays (depositor defined):AID1777, AID1785, AID1786, AID2133]; assay type: functional
[15] = molecular target: T3, Delta-type opioid receptor; assay: HTS Image-Based Screen for Agonists of the DOR Receptor. [Related pubchem assays (depositor defined):AID1777, AID1786, AID2133]; assay type: functional
Mu-type opioid receptor [16] = molecular target: T1, Mu-type opioid receptor; assay: MOR agonists by imaging, SAR follow-up, image-based (AID 2352); assay type: functional
[17] = molecular target: T3, Delta-type opioid receptor; assay: DOR agonists, SAR follow-up, image-based (AID 2370); assay type: functional
[18] = molecular target: T2, Kappa-type opioid receptor; assay: KOR antagonists by imaging, SAR follow-up, image-based (AID 2348); assay type: functional
Mu-type opioid receptor [19] = molecular target: T1, Mu-type opioid receptor; assay: MOR antagonists, SAR follow-up, image-based (AID 2420); assay type: functional;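 further: compounds added before stimulation of receptor with agonist DAMGO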
[20] = cytotoxicity in HEK-293T cells, dose response, cytotoxicity control for BCR NF-kB inhibitor project, luminescence, B-cell screen hits (AID 489021); assay type: functional, cell-based;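 further: HEK-293T cells carrying an NF-kB luciferase reporter; cells exposed to compound for about 14 hours before viability readout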
[21] = Luminescence Cell-Based Dose Response HTS to Identify Inhibitors of 5'UTR Stem-Loop Driven Prion Protein mRNA Translation in H4 Neuroglioblastoma Cells. [Related pubchem assays: 1827 (Project Summary), 1813 (Primary HTS)]; assay type: functional
[22] = inhibitors of SNCA 5'UTR-driven reporter translation, confirmation, H4 neuroglioma cells, luminescence (AID 1988); assay type: functional, cell-based
[23] = inhibitors of firefly luciferase expression or activity, dose response, H4 neuroglioma cells, luminescence (AID 1990); assay type: functional, cell-based
[24] = molecular target: T2, Kappa-type opioid receptor; assay: kappa opioid receptor blockers, cell-based, luminescence, beta-arrestin, SAR follow-up (AID 2285); assay type: functional
Streptococcus = assay: Group A Streptococcus viability loss, dose response, counter-screen for streptokinase expression inhibitor project, luminescence, BacTiterGlo (AID 1915); assay type: functional, organism-based;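 further: potency for reduction of bacterial viability or growth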
[25] = molecular target: T4, RNA-binding protein pos-1 (Caenorhabditis elegans, UniProt G5EF15); assay: inhibitors of POS-1/mex-3 RNA binding, dose response, biochemical, fluorescence polarization (AID 1964);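 further: purified POS-1 fused to maltose binding protein made in E. coli; potency of compounds blocking POS-1 binding to fluorescent RNA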
T4 sequence (G5EF15 whole entry): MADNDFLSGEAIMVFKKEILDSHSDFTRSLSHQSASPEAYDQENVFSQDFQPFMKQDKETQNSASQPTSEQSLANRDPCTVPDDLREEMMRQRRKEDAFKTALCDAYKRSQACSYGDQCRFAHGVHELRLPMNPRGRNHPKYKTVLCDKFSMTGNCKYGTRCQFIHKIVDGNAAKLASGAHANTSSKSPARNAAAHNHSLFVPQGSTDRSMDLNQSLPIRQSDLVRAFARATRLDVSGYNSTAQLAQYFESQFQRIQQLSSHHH

[26] = molecular target: Peroxisome proliferator-activated receptor gamma/Nuclear receptor coactivator 3 (Homo sapiens, UniProt P37231); assay type: functional;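 further: agonist potency for raising coactivator recruitment to the receptor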
Chain of Peroxisome proliferator-activated receptor gamma/Nuclear receptor coactivator 3 (P37231 whole entry): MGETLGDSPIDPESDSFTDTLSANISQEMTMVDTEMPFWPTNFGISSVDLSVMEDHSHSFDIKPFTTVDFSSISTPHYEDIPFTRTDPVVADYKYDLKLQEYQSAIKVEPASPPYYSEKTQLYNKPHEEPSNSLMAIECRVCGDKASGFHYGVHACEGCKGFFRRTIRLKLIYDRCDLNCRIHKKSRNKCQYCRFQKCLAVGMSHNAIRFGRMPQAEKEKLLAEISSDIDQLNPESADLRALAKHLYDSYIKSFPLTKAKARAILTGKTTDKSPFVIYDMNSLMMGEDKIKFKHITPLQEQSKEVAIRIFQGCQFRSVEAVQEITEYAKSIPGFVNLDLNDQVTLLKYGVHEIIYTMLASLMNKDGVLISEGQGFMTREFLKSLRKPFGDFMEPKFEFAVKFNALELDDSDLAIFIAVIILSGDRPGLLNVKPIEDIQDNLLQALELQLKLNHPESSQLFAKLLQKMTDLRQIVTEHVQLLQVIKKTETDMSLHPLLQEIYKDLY
Chain of Peroxisome proliferator-activated receptor gamma/Nuclear receptor coactivator 3 (Q9Y6Q9 whole entry, further chain): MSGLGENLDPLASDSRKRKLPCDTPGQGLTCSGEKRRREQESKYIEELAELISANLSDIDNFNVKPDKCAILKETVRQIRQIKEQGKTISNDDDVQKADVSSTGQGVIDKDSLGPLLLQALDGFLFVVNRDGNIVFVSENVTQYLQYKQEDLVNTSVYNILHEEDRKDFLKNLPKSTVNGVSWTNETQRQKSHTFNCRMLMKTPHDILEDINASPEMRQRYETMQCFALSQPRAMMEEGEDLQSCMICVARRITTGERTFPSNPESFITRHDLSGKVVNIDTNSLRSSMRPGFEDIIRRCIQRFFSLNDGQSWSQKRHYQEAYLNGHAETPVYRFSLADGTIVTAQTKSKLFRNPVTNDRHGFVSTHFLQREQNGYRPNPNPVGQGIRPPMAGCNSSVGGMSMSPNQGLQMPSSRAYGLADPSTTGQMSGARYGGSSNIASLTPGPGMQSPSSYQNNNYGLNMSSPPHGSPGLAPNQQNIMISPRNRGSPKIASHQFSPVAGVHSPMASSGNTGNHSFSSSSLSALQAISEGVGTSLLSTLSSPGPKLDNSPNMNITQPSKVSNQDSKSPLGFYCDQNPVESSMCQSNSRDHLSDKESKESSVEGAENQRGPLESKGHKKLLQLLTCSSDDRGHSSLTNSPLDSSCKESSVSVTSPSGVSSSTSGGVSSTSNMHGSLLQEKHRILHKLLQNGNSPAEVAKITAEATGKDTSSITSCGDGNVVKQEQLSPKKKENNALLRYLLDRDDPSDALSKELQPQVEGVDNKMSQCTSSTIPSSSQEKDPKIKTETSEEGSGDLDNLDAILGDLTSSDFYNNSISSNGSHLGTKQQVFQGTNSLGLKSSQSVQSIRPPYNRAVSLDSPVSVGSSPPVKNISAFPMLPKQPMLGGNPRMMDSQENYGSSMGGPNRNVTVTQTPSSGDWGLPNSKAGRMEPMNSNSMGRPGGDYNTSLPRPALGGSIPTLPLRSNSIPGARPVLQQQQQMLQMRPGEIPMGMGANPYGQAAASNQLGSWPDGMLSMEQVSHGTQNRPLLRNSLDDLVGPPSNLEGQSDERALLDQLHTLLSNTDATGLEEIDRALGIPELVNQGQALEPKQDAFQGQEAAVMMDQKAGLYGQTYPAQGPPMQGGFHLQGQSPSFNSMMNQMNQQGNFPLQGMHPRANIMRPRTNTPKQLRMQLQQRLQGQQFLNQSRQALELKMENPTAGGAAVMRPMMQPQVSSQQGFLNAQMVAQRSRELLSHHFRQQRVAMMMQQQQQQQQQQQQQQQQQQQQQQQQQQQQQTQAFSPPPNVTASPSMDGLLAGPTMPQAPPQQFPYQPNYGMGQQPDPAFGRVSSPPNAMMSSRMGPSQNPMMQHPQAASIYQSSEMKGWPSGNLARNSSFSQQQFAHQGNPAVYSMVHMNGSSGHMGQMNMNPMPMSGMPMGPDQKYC

Streptokinase A = molecular target: T5, Streptokinase A (Streptococcus pyogenes serotype M1, UniProt P10520); assay: S. pyogenes streptokinase expression inhibitors, potency, dose response, plasminogen activation absorbance, OD405 (AID 1914); assay type: functional, Streptococcus pyogenes M1 GAS;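 further: secreted streptokinase activity via plasminogen activation per viability signal from cell pellet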
T5 sequence (P10520 whole entry): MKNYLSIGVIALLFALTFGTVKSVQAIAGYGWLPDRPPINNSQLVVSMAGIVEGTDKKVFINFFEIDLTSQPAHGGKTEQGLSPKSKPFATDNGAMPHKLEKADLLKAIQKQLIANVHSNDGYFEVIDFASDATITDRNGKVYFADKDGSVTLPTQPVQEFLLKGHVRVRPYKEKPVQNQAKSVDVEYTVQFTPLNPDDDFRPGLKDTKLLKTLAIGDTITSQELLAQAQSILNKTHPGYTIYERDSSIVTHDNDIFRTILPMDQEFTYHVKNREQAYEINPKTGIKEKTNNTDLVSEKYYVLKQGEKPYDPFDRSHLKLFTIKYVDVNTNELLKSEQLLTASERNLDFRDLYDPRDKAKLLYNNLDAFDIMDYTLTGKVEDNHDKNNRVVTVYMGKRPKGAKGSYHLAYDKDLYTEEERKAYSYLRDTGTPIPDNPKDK

[27] = molecular target: T6, Zinc finger protein mex-5 (Caenorhabditis elegans, UniProt Q9XUB2); assay: MEX-5/TCR-2 RNA interaction inhibitors, dose response, biochemical, C. elegans, fluorescence polarization (AID 1960)
T6 sequence (Q9XUB2 whole entry): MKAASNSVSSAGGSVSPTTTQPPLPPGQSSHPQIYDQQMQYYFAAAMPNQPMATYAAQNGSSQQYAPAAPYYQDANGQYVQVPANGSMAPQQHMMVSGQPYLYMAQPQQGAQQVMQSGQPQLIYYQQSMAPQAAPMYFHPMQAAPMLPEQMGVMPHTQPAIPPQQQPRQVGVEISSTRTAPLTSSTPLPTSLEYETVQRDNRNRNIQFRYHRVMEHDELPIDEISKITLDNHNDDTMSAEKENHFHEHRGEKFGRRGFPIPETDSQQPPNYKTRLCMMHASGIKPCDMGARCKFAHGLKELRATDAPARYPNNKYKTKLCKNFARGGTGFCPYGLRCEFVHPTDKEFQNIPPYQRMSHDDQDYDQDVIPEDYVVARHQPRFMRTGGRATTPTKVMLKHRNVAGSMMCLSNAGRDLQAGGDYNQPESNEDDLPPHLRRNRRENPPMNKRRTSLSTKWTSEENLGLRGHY

[28] = molecular target: Peroxisome proliferator-activated receptor gamma/Nuclear receptor coactivator 2 (Homo sapiens, UniProt P37231); assay type: functional;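 further: agonist potency for raising coactivator recruitment to the receptor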
[29] = system: Streptococcus sp. 'group A'; assay: growth inhibition of control SK(-) GAS strain, dose response, counter-screen for streptokinase expression inhibitor project, luminescence, kanamycin, BacTiterGlo, confirmation (AID 1900); assay type: functional, organism-based
[30] = molecular target: Peroxisome proliferator-activated receptor gamma/Nuclear receptor coactivator 1 (Homo sapiens, UniProt P37231); assay type: functional;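 further: agonist potency as compounds enhance coactivator SRC-1 recruitment to PPARgamma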
[31] = molecular target: Scavenger receptor class B member 1 (Mus musculus, UniProt Q61009); assay: inhibitors of SR-BI mediated HDL lipid uptake, dose response, ldlA[mSR-BI] cells, fluorescence, cherry pick (AID 493194); assay type: functional, cell-based;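 further: cellular uptake of fluorescent DiI-labeled HDL measured as cell fluorescence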
Chain of Scavenger receptor class B member 1 (Q61009 whole entry): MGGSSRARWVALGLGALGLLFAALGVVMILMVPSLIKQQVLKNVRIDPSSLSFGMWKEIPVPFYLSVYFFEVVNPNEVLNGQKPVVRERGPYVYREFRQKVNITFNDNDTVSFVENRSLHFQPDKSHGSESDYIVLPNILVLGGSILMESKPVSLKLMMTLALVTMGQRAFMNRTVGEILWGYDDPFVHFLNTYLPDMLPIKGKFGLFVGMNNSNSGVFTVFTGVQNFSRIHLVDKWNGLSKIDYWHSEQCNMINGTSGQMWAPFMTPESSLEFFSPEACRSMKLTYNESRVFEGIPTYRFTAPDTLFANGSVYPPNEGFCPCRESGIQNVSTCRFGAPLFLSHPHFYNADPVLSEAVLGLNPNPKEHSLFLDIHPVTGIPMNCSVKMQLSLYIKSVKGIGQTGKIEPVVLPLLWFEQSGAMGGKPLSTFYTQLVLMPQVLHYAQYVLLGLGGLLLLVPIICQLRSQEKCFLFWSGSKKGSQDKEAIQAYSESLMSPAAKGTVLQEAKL

[32] = molecular target: Acyl-homoserine lactone acylase PvdQ (Pseudomonas aeruginosa (strain LESB58), UniProt Q9I194); assay: P. aeruginosa PvdQ acylase inhibitors, dose response, biochemical, fluorescence, plate reader and imaging, cherry-picks (AID 493231)
Chain of Acyl-homoserine lactone acylase PvdQ (Q9I194 24-193 limits assumed): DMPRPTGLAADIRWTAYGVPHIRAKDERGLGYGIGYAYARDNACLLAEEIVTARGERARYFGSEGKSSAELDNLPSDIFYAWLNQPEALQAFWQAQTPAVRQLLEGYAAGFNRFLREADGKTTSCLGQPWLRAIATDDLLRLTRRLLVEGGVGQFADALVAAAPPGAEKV
Chain of Acyl-homoserine lactone acylase PvdQ (Q9I194 217-762 limits assumed): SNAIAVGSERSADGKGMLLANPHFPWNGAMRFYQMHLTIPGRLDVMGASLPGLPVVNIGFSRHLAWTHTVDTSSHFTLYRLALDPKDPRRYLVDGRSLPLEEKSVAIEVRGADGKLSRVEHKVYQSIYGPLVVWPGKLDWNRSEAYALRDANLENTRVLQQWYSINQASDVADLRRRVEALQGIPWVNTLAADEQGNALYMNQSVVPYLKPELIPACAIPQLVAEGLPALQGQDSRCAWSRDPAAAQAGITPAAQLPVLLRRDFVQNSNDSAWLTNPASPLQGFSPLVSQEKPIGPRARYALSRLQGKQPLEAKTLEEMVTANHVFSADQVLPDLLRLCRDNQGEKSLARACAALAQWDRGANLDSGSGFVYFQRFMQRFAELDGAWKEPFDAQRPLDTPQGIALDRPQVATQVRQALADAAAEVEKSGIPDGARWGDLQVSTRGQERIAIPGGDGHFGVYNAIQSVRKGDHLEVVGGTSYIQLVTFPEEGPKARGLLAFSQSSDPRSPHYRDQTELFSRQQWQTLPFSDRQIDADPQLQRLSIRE

Question: With `C/C=C/COC(=O)c1[nH]c2c(c1C)C(=O)CC(c1ccco1)C2` (configuration not stated) as the compound, how does the EC50 (BJ [1]) read?
Answer: 4.74 µM (inconclusive)

Question: What about the IC50 (Estrogen receptor) of the same compound?
Answer: 24.7 µM (active)

Question: What about the IC50 [2] of the same compound?
Answer: 45.8 µM (active)

Question: And the IC50 (Estrogen receptor beta)?
Answer: > 50 µM (not active)

Question: What about the EC50 (BJ [3]) of the same compound?
Answer: 2.76 µM (active)

Question: What about the IC50 [4] of the same compound?
Answer: > 80 µM (inactive)

Question: What about the EC50 (BJ [5]) of the same compound?
Answer: 2.84 µM (inconclusive)

Question: And the EC50 [6]?
Answer: 2.76 µM (active)

Question: And the IC50 [7]?
Answer: 21.7 µM (active)

Question: What does the source list for `COc1ccc(CN(CC2CCCO2)C(=O)CN2C(=O)COc3ccccc32)cc1OC` (configuration not stated)?
Answer: EC50 (Mu-type opioid receptor [8]): > 32 µM (inactive); EC50 [9]: > 10 µM (inactive); EC50 [10]: 11.5 µM; IC50 [11]: > 32 µM (inactive); EC50 [12]: 11 µM; EC50 [13]: 4.88 µM (active); IC50 [14]: > 32 µM (inactive); EC50 [15]: > 32 µM (inactive); EC50 (Mu-type opioid receptor [16]): > 32 µM (inactive); EC50 [17]: > 32 µM (inactive); IC50 [18]: > 32 µM (inactive); IC50 (Mu-type opioid receptor [19]): > 32 µM (inactive)

Question: With `Cc1ccc(C(=O)NNC(=O)CCCN2C(=O)/C(=C/c3ccccc3Cl)SC2=S)cc1` as the compound, how does the IC50 [20] read?
Answer: > 80 µM (inactive)

Question: And the EC50 [21]?
Answer: > 120 µM (not active)

Question: And the EC50 [22]?
Answer: 14 µM (active)

Question: And the EC50 [23]?
Answer: 10.8 µM (active)

Question: With `Oc1c(C=Nc2cccc3cccnc23)sc2ccccc12` as the compound, how does the IC50 [11] read?
Answer: 1.01 µM (active)

Question: What about the EC50 [13] of the same compound?
Answer: > 32 µM (inactive)

Question: And the EC50 (Mu-type opioid receptor [16])?
Answer: > 32 µM (inactive)

Question: And the EC50 [17]?
Answer: > 32 µM (inactive)

Question: And the IC50 [24]?
Answer: 8.77 µM (active)

Question: What about the IC50 [18] of the same compound?
Answer: 0.533 µM (active)

Question: What about the IC50 (Mu-type opioid receptor [19]) of the same compound?
Answer: 0.897 µM (active)

Question: What does the source list for `Cc1cc(C)c2c(c1)NC(c1cc3c(cc1Br)OCO3)C1CC=CC21` (configuration not stated)?
Answer: EC50 (Streptococcus): 114 µM (active); EC50 [25]: > 300 µM (not active); EC50 [26]: > 79.4 µM (not active); EC50 (Streptokinase A): > 150 µM (not active); EC50 [27]: > 300 µM (not active); EC50 [28]: > 79.4 µM (not active); EC50 [29]: 5.11 µM (active); EC50 [30]: > 79.4 µM (not active); AC50 [31]: 19 µM (active)

Question: With `O=[N+]([O-])c1ccc(Sc2ccccc2Cl)nc1` as the compound, how does the AC50 [32] read?
Answer: 33.2 µM (active)
